The text below walks through data of ChEMBL document CHEMBL1137604, “Structure-activity relationship study on the 6-membered heteroaromatic ring system of diphenylpyrazine-type prostacyclin receptor agonists” (Bioorg Med Chem Lett, 2007).

The experiment has as its system Plasma. As to the kind of experiment: Inhibition of ADP-induced platelet aggregation in human platelet rich plasma.
As usually defined, the IC50 is the concentration that inhibits the measured activity by half. A high value points to lower potency. `CN(CCCCOCC(=O)O)c1cnc(-c2ccccc2)c(-c2ccccc2)c1` yielded an IC50 of 800 nM. For `CN(CCCCOCC(=O)O)c1nnc(-c2ccccc2)c(-c2ccccc2)n1`, the midpoint of inhibition, the IC50, lay at 1300 nM.

The compound `CN(CCCCOCC(=O)O)c1ncc(-c2ccccc2)c(-c2ccccc2)n1` returned an IC50 of 800 nM.

`CN(CCCCOCC(=O)O)c1ccc(-c2ccccc2)c(-c2ccccc2)n1` showed an IC50 of 200 nM.

Take `CN(CCCCOCC(=O)O)c1cc(-c2ccccc2)c(-c2ccccc2)cn1`: half-maximal inhibition (IC50) was put at 1100 nM.

Take `CN(CCCCOCC(=O)O)c1cc(-c2ccccc2)c(-c2ccccc2)nn1`: the IC50 amounted to 8600 nM.
